Where two headings read alike, the source gives them in different places.
Experiments:
[1] = biological target: T1, LRRK2^WT (Mus musculus, UniProt Q5S006); assay: Western blot LRRK2 degradation in WT MEFs; format: cell-based; conditions: for Dmax: read-out: Dmax on WT MEFs
T1 construct: endogenous in cells; host or cells: primary wild-type mouse embryonic fibroblasts (MEFs)
Protocol: (§1) Western blot degradation assays for the LRRK2 protacs were performed with WT and PD-associated LRRK2 [G2019S] mouse embryonic fibroblasts (MEFs). The second-generation PROTACs were tested in parallel with the first generation PROTACs SD75, SD82, and SD100. The compounds were tested at 33 nM or […] concentrations for 4 hours or 24 hours, running two biological replicates per condition and achieving quantifications representative of both replicates. Analysis by quantitative immunoblotting was performed with readouts of the total LRRK2 (antibody recognizes epitope in C-terminus of protein), Rab10 pThr73 (physiological substrate) and LRRK2 pSer935 (biomarker phosphorylation site).
(§2) Primary MEFs were generated as described in a previous study (Wiggin et al., Mol. Cell Biol. 2002 April; 22(8):2871-81.). Briefly, the uterine horn was collected from adult female mice at day E12.5 and transferred to a 10 cm tissue culture dish containing cold PBS. Two forceps were used to tear the yolk sacs to isolate each embryo. Forceps were cleaned thoroughly with 70% ethanol between each embryo isolation. The embryos were culled, and a tissue piece was collected in a PCR tube for genotyping. The red tissue of the embryo, which grows to become the heart and liver, was removed. The remainder of the embryo was minced with a scalpel blade and incubated with 7.5 ml trypsin-EDTA solution for 10 minutes in a 37° C. tissue culture CO2 incubator. The dish was removed from the incubator and checked under a light microscope for single cells. 7.5 ml complete media was added to the trypsinised cells, and the cell suspension was transferred to a 15 ml Falcon tube, centrifuged at 1200 rpm for 5 minutes at room temperature. The trypsin was aspirated, the cell pellet was resuspended in 5 ml fresh complete media, and the cell suspension was plated in a 60 mm tissue culture dish and incubated in a 37° C., 5% CO2 tissue culture incubator. The MEFs at this stage were considered as passage 0 and were passaged and expanded for experimental use once the genotype was confirmed by allelic sequencing and immunoblotting. MEFs were cultured in Dulbecco's modified Eagle medium (DMEM) containing 10% (v/v) fetal bovine serum (FBS), 2 mM L-glutamine, 100 U/ml penicillin, and 100 μg/ml streptomycin supplemented with 1× non-essential amino acids and 1 mM sodium pyruvate.
Culturing and passaging of adherent cell lines were carried out using aseptic technique in CL1 or CL2 (for PBMC isolation) biological safety cabinets. All cells were incubated in a 37° C. incubator with 5% CO2. Cell lines were regularly tested for mycoplasma contamination. For western blot assay, the cells were seeded in 6-well plates. After treating with testing compounds at indicated concentrations and time period, the media was removed and the cells were washed with PBS and lysed in 100 μl ice-cold complete lysis buffer containing 50 mM Tris-HCl pH 7.4, 1 mM EGTA, 10 mM 2-glycerophosphate, 50 mM sodium fluoride, 5 mM sodium pyrophosphate, 270 mM sucrose, supplemented with 1 μg/ml microcystin-LR, 1 mM sodium orthovanadate, complete EDTA-free protease inhibitor cocktail (Roche) and 1% (v/v) Triton X-100. The cells were immediately placed on ice and were scraped and collected into 1.5 ml Eppendorf tubes. Cell lysates were incubated on ice for 10 minutes prior to centrifugation at 15,000 g at 4° C. for 15 minutes. The cell pellet was discarded, and supernatant was collected for analysis by quantitative immunoblotting. For long term storage, the supernatant was flash frozen and stored at −80° C. Protein concentrations of cell lysates were determined using the Bradford assay.
Cell lysates containing a quarter of a volume of 4× NuPAGE LDS sample buffer (NP0007) supplemented with 5% β-mercaptoethanol, were heated at 95° C. for 5 minutes. […]

[2] = test system: Rab10 pThr73; assay: Rab10 Thr73 dephosphorylation (immunoblot) in LRRK2^G2019S MEFs; format: cell-based; conditions: Mus musculus, read-out: pRab10 inhibited in LRRK2^G2019S MEFs
[3] = test system: Rab10 pThr73; assay: Rab10 Thr73 dephosphorylation (immunoblot) in WT MEFs; format: cell-based, mouse; conditions: Mus musculus; for inhibition at 0.033 µM / inhibition at 1 µM: read-out: pRab10 inhibited in WT MEFs; for EC50: dose response, 4 h treatment, read-out: WT MEFs pRab10-dephosphrylation EC50
Method in brief: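 Wild-type mouse embryonic fibroblasts in 6-well plates were treated with LRRK2 PROTACs, with two biological replicates per condition. Cells were washed in PBS and lysed on ice in buffer containing phosphatase and protease inhibitors plus 1% Triton X-100, then clarified at 15,000 g. Rab10 Thr73 phosphorylation was measured by quantitative immunoblotting of 15 to 20 μg protein on 4-12% Bis-Tris gels.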

[4] = biological target: T2, LRRK2^G2019S (Mus musculus, UniProt Q5S006, G2019S); assay: Western blot LRRK2 degradation in LRRK2^G2019S MEFs; format: cell-based; conditions: for Dmax: read-out: Dmax on G2019S MEFs
T2 construct: endogenous in cells; host or cells: LRRK2[G2019S] mouse embryonic fibroblasts (MEFs)
T2 sequence (Q5S006 whole entry G2019S): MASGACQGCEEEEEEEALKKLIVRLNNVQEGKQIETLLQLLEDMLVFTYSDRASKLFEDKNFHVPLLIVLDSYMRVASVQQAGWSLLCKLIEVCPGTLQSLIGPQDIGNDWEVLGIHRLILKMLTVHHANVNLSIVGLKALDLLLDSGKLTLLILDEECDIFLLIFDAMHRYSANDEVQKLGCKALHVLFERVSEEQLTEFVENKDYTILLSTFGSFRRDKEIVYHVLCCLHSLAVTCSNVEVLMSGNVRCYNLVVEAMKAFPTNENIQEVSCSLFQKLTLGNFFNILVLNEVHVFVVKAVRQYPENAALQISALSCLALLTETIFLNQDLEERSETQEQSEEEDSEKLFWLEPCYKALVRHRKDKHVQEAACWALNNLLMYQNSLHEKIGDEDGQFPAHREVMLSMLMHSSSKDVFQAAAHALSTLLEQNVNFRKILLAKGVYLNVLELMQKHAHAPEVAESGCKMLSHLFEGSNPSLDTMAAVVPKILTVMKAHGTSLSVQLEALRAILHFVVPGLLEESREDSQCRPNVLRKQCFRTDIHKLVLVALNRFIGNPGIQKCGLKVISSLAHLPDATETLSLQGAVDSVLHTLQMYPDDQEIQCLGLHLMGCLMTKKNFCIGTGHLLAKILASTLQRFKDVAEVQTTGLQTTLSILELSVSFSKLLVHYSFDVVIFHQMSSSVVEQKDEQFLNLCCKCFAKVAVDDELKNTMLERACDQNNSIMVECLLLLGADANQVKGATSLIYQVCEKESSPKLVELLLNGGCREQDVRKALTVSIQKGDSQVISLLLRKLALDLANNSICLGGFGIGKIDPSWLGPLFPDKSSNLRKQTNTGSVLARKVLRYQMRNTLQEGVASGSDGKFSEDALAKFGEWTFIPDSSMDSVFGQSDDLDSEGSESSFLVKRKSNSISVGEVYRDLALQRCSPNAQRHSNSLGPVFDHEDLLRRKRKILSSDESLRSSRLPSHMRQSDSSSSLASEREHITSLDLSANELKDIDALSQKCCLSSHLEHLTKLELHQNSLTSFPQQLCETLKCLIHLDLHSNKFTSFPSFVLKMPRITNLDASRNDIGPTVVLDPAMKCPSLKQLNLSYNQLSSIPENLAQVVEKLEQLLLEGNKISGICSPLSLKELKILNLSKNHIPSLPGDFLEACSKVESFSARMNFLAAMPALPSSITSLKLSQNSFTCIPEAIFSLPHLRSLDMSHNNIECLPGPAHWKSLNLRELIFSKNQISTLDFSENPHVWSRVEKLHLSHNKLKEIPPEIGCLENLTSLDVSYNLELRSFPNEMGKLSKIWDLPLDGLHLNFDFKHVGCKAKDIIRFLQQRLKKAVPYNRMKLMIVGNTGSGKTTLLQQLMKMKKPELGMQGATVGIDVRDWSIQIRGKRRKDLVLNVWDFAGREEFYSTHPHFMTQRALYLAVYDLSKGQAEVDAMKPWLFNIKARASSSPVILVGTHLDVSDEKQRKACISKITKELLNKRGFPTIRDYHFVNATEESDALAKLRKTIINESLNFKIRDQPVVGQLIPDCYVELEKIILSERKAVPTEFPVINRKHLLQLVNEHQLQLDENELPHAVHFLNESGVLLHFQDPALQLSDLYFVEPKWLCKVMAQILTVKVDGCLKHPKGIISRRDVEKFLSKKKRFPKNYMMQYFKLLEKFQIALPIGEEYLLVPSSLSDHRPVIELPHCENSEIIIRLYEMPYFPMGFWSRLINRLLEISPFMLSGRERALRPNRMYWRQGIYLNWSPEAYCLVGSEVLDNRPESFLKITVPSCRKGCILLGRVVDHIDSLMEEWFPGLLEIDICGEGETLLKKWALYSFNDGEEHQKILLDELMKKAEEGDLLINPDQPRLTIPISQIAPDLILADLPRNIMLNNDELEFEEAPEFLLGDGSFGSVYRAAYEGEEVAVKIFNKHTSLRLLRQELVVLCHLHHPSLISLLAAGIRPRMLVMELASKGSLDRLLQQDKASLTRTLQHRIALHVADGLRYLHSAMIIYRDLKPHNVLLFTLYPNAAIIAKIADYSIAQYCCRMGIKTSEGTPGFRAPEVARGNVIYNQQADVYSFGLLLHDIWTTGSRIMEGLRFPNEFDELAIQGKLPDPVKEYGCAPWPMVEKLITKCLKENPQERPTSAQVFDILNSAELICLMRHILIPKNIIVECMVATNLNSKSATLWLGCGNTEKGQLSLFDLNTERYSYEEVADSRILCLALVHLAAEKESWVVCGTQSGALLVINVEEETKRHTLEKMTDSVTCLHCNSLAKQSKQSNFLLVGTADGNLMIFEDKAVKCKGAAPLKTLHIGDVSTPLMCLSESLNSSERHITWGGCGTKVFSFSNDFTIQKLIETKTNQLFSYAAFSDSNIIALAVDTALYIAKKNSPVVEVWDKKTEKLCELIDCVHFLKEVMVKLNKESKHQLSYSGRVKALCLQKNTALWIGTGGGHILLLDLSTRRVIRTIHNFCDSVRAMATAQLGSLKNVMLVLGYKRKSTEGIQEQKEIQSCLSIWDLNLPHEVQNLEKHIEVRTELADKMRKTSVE
Protocol: as §1, with “The” for “Western blot degradation assays for the LRRK2 protacs were performed with WT and PD-associated LRRK2 [G2019S] mouse embryonic fibroblasts (MEFs). The”
as §2
Culturing and passaging of adherent cell lines were carried out using aseptic technique in CL1 or CL2 (for PBMC isolation) biological safety cabinets. All cells were incubated in a 37° C. incubator with 5% CO2. Cell lines were regularly tested for mycoplasma contamination. For western blot assay, the cells were seeded in 6-well plates. […] The cells were immediately placed on ice and were scraped and collected into 1.5 ml Eppendorf tubes. Cell lysates were incubated on ice for 10 minutes prior to centrifugation at 15,000 g at 4° C. for 15 minutes. The cell pellet was discarded, and supernatant was collected for analysis by quantitative immunoblotting. For long term storage, the supernatant was flash frozen and stored at −80° C. Protein concentrations of cell lysates were determined using the Bradford assay.
Cell lysates containing a quarter of a volume of 4× NuPAGE LDS sample buffer (NP0007) supplemented with 5% β-mercaptoethanol, were heated at 95° C. for 5 minutes. 15 to 20 μg of samples were loaded onto pre-cast 4-12% Bis-Tris midi 20W or 26W gels (Thermofisher Scientific®, Cat #WG1402BOX or WG1403BOX) and resolved at 130 V for 2 hours with NuPAGE MOPS SDS running buffer (Thermofisher Scientific® Cat #NP0001-02). Proteins were electrophoretically transferred onto a 0.45 μm nitrocellulose membrane (GE Healthcare, Amersham Protran® Supported 0.45 mm NC) at 90 V for 90 min on ice in transfer buffer (48 mM Tris base and 39 mM glycine supplemented with 20% methanol). The transferred membrane was blocked with 5% (w/v) skim milk powder dissolved in tris-buffered saline with tween (TBS-T) (50 mM Tris base, 150 mM sodium chloride (NaCl), 0.1% (v/v) Tween-20) at room temperature for 1 hour.

[5] = test system: Rab10 pThr73; assay: Rab10 Thr73 dephosphorylation (immunoblot) in LRRK2^G2019S MEFs; format: cell-based, mouse; conditions: Mus musculus; for inhibition at 1 µM: read-out: pRab10 inhibited in LRRK2^G2019S MEFs; for EC50: dose response, 4 h treatment, read-out: G2019S MEFs-pRab10-dephosphorylation EC50

T1 sequence (Q5S006 whole entry): as the sequence (Q5S006 whole entry G2019S) above, with S2019G counted along it

## CNc1nc(Nc2ccc(C(=O)N3CCN(C(=O)[C@H]4CC[C@H](CSC(C)(C)[C@H](NC(=O)C5(F)CC5)C(=O)N5C[C@H](O)CC5C(=O)NCc5ccc(-c6scnc6C)cc5)CC4)CC3)cc2OC)ncc1Cl (stereo partly drawn) [XL02068, (2S,4R)-1-((R)-3-((((1R,4R)-4-(4-(4-((5-chloro-4-(methylamino)pyrimidin-2-yl)amino)-3-methoxybenzoyl)piperazine-1-carbonyl)cyclohexyl)methyl)thio)-2-(1-fluorocyclopropane-1-carboxamido)-3-methylbutanoyl)-4-hydroxy-N-(4-(4-methylthiazol-5-yl)benzyl)pyrrolidine-2-carboxamide]
[1]; dose response, 4 h treatment
  DC50: 93 nM
[1]
  Dmax: 89%
[2]; 33 nM/4 h treatment
  inhibition at 0.033 µM: 0 to 90%
[2]; 33 nM/24 h treatment
  inhibition at 0.033 µM: 30 to 90%
[3]; 33 nM/4 h treatment
  inhibition at 0.033 µM: 0 to 70%
[3]; 33 nM/24 h treatment
  inhibition at 0.033 µM: 0 to 80%
[3]; 1 μM/4 h treatment
  inhibition at 1 µM: 80 to 100%
[3]; 1 μM/24 h treatment
  inhibition at 1 µM: 80 to 100%
[3]
  EC50: 272 nM
[4]; dose response, 4 h treatment
  DC50: 103 nM
[4]
  Dmax: 87%
[5]; 1 μM/4 h treatment
  inhibition at 1 µM: 10 to 100%
[5]; 1 μM/24 h treatment
  inhibition at 1 µM: 80 to 100%
[5]
  EC50: 150 nM

## CNc1nc(Nc2ccc(C(=O)N3CCN(C[C@H]4CC[C@@H](CSC(C)(C)[C@H](NC(=O)C5(F)CC5)C(=O)N5C[C@H](O)CC5C(=O)NCc5ccc(-c6scnc6C)cc5C)CC4)CC3)cc2OC)ncc1Cl (stereo partly drawn) [XL02059, (2S,4R)-1-((R)-3-((((1s,4S)-4-((4-(4-((5-chloro-4-(methylamino)pyrimidin-2-yl)amino)-3-methoxybenzoyl)piperazin-1-yl)methyl)cyclohexyl)methyl)thio)-2-(1-fluorocyclopropane-1-carboxamido)-3-methylbutanoyl)-4-hydroxy-N-(2-methyl-4-(4-methylthiazol-5-yl)benzyl)pyrrolidine-2-carboxamide]
[1]; dose response, 4 h treatment
  Dmax: 77.5%
[2]; 33 nM/4 h treatment
  inhibition at 0.033 µM: 0 to 90%
[2]; 33 nM/24 h treatment
  inhibition at 0.033 µM: 30 to 90%
[3]; 33 nM/4 h treatment
  inhibition at 0.033 µM: 0 to 70%
[3]; 33 nM/24 h treatment
  inhibition at 0.033 µM: 0 to 80%
[3]; 1 μM/4 h treatment
  inhibition at 1 µM: 80 to 100%
[3]; 1 μM/24 h treatment
  inhibition at 1 µM: 80 to 100%
[3]
  EC50: 227 nM
[4]; dose response, 4 h treatment
  Dmax: 76%
[5]; 1 μM/4 h treatment
  inhibition at 1 µM: 10 to 100%
[5]; 1 μM/24 h treatment
  inhibition at 1 µM: 80 to 100%
[5]
  EC50: 55 nM

## CNc1nc(Nc2ccc(C(=O)N3CCN(C[C@H]4CC[C@H](CSC(C)(C)[C@H](NC(=O)C5(F)CC5)C(=O)N5C[C@H](O)[C@H](F)C5C(=O)NCc5ccc(-c6scnc6C)cc5)CC4)CC3)cc2OC)ncc1Cl (stereo partly drawn) [XL02152, (2S,3R,4S)-1-((R)-3-((((1r,4R)-4-((4-(4-((5-chloro-4-(methylamino)pyrimidin-2-yl)amino)-3-methoxybenzoyl)piperazin-1-yl)methyl)cyclohexyl)methyl)thio)-2-(1-fluorocyclopropane-1-carboxamido)-3-methylbutanoyl)-3-fluoro-4-hydroxy-N-(4-(4-methylthiazol-5-yl)benzyl)pyrrolidine-2-carboxamide]
[1]; dose response, 4 h treatment
  DC50: 62 nM
[1]
  Dmax: 68%
[2]; 33 nM/4 h treatment
  inhibition at 0.033 µM: 20 to 50%
[3]; 33 nM/4 h treatment
  inhibition at 0.033 µM: 20 to 40%
[3]; 1 μM/4 h treatment
  inhibition at 1 µM: 75 to 90%
[3]
  EC50: 144 nM
[4]; dose response, 4 h treatment
  DC50: 44 nM
[4]
  Dmax: 80%
[5]; 1 μM/4 h treatment
  inhibition at 1 µM: 80 to 100%
[5]
  EC50: 63 nM

## CNc1nc(Nc2ccc(C(=O)N3CCN(C[C@H]4CO[C@H](CSC(C)(C)[C@@H](NC(=O)C5(F)CC5)C(=O)N5C[C@H](O)C[C@H]5C(=O)NCc5ccc(-c6scnc6C)cc5)CO4)CC3)cc2OC)ncc1Cl [XL02098, (2S,4R)-1-((S)-3-((((2S,5S)-5-((4-(4-((5-chloro-4-(methylamino)pyrimidin-2-yl)amino)-3-methoxybenzoyl)piperazin-1-yl)methyl)-1,4-dioxan-2-yl)methyl)thio)-2-(1-fluorocyclopropane-1-carboxamido)-3-methylbutanoyl)-4-hydroxy-N-(4-(4-methylthiazol-5-yl)benzyl)pyrrolidine-2-carboxamide]
[1]; dose response, 4 h treatment
  DC50: 50 nM
  Dmax: 59%
[3]; 1 μM/4 h treatment
  inhibition at 1 µM: 75 to 90%
[3]
  EC50: 282 nM
[4]; dose response, 4 h treatment
  DC50: 45 nM
  Dmax: 81%
[5]; 1 μM/4 h treatment
  inhibition at 1 µM: 80 to 100%
[5]
  EC50: 157 nM
